11 compounds from ChEMBL document CHEMBL1201862, “PubChem BioAssay data set” (2004) can be followed below.

Common to all, as to experiment: NCI tumour cell line growth inhibition, 48 h
Assay [1] concerns A549.
The test system of assay [2] is DU-145.
Assay [3] has as its system HCC 2998.
Assay [4] has as its system HL-60.
Assay [5] concerns HT-29.
The subject of assay [6] is IGROV-1.
The subject of assay [7] is K562.
The subject of assay [8] is M14.
Assay [9] has as its system NCI-H460.
In assay [10] the test system is NCI-H522.
Assay [11] has as its system RXF 393.
The test system of assay [12] is SF-268.
The test system of assay [13] is SK-MEL-28.
The test system of assay [14] is SNB-19.
Assay [15] deals with T47D.
Assay [16] deals with U-251.
Assay [17] relates to UO-31.
In assay [18] the test system is A498.
For assay [19], the system named is HOP-62.
In assay [20] the test system is PC-3.

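In this assay, cells in 96-well plates receive the compound at five concentrations for 48 hours. Endpoints are linearly interpolated between the surrounding concentrations. At the GI50, growth is halved.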 Activity calls are given as the source filed them. Rule as the data show it: active = GI50 up to about 1.1 µM and inactive = higher. Where only a bound is given, the exact number is not on record here.

In the case of `COc1cccc2c1[C@H]1CO[C@H]3C4C[C@H](C(=O)O)C([C@@H](C2)N13)N4C` (some centres not stated), the GI50 is 8.18 µM (inactive) in assay [1]; 0.0423 µM (active) in assay [2]; 2.58 µM (inactive) in assay [3]; 1.62 µM (inactive) in assay [4]; 2.13 µM (inactive) in assay [5]; 4.51 µM (inactive) in assay [6]. Also, the GI50 in assay [7] was 1.47 µM (inactive); in assay [8] it was 4.99 µM (inactive); in assay [9], 3.93 µM (inactive); in assay [10], 0.294 µM (active); in [11], 1.19 µM (inactive); in assay [12], 1.79 µM (inactive). In addition, the GI50 in [13] was 2.1 µM (inactive); in assay [14], 2.91 µM (inactive); in assay [15] it was 0.242 µM (active); in assay [16], 1.41 µM (inactive); in [17], 1.54 µM (inactive).

As for `CC(C)C(=O)OCC1CCCN2CCCCC12` (configuration not stated), the GI50 is > 100 µM (inactive) in assay [18]; 74 µM (inactive) in assay [1]; > 100 µM (inactive) in [2]; 28.8 µM (inactive) in assay [3]; 39.8 µM (inactive) in assay [4]; > 100 µM (inactive) in [19]. In addition, the GI50 is 30.5 µM (inactive) in [5]; 51.3 µM (inactive) in assay [7]; > 100 µM (inactive) in assay [8]; 38.7 µM (inactive) in [9]; 79.4 µM (inactive) in [20]; > 100 µM (inactive) in assay [11]. The GI50 in assay [12] is > 100 µM (inactive); in assay [13] it was 97.9 µM (inactive); in assay [14], > 100 µM (inactive); in assay [16], > 100 µM (inactive); in assay [17], 62.7 µM (inactive).

For `CC(CC(C)(C)[N+](C)(C)C)[N+](C)(C)C` (configuration not stated), the GI50 in [1], in assay [2], in assay [3], in assay [4], in [19] and in [5] was > 100 µM (inactive) in each case. The GI50 in assay [6], in assay [7], in assay [8], in [9], in [10] and in assay [20] was > 100 µM (inactive) in each case. In addition, the GI50 in assay [11], in assay [12], in assay [13], in assay [14], in assay [16] and in [17] was > 100 µM (inactive) each time.

Take `COC(=O)c1cc(OCc2cc(OCc3ccc(Br)cc3)cc(OCc3ccc(Br)cc3)c2)cc(OCc2cc(OCc3ccc(Br)cc3)cc(OCc3ccc(Br)cc3)c2)c1`: the GI50 in assay [18], in assay [1], in assay [2], in [3], in [19] and in assay [7] was > 100 µM (inactive) in each case. Moreover, the GI50 in assay [8], in assay [9], in assay [10], in [20], in assay [12] and in assay [13] was > 100 µM (inactive) in each case. The GI50 in [14], in assay [15], in assay [16] and in assay [17] was > 100 µM (inactive) each time.

For the compound `CC(C)(C)[Si](C)(C)OCC1OC(n2ccc(=O)[nH]c2=O)C(O[Si](C)(C)C(C)(C)C)[C@]12O[C@@H]2CO` (some centres not stated), the GI50 in assay [18] was 18.6 µM (inactive); in assay [1], 10.9 µM (inactive); in assay [2], 19.4 µM (inactive); in assay [3], 20.8 µM (inactive); in [19] it was 16 µM (inactive); in assay [5] it was 10.6 µM (inactive). For the same compound, the GI50 was 16.3 µM (inactive) in assay [6]; 23.3 µM (inactive) in [7]; 14.4 µM (inactive) in [8]; 14 µM (inactive) in assay [9]; 14.1 µM (inactive) in assay [10]; 4.58 µM (inactive) in [20]. In addition, the GI50 in assay [12] was 19.4 µM (inactive); in assay [13], 15.9 µM (inactive); in [14] it was 10.3 µM (inactive); in assay [16], 15.6 µM (inactive); in assay [17], 8.85 µM (inactive).

As to `CS(=O)(=O)OCC1OC(n2ccc(NC(=O)c3ccccc3)nc2=O)CC1OS(C)(=O)=O` (configuration not stated), the GI50 in assay [18], in assay [1], in assay [2], in assay [4], in assay [19] and in assay [5] was > 100 µM (inactive) each time. The GI50 in assay [6], in [7], in assay [8], in assay [9], in assay [10] and in [20] was > 100 µM (inactive) throughout. Further, the GI50 is > 100 µM (inactive) in assay [12]; > 100 µM (inactive) in assay [13]; > 100 µM (inactive) in assay [14]; > 100 µM (inactive) in [15]; > 100 µM (inactive) in assay [16]; > 10 µM (inactive) in [17].

Take `c1ccc2[nH]c3nc4ccccc4c-3cc2c1`: the GI50 was 3.33 µM (inactive) in assay [18]; 0.245 µM (active) in assay [1]; 1.26 µM (inactive) in assay [2]; 0.757 µM (active) in assay [3]; 0.192 µM (active) in [4]; < 0.0303 µM (active) in assay [5]. Moreover, the GI50 is 0.286 µM (active) in assay [6]; 0.189 µM (active) in assay [7]; 0.536 µM (active) in assay [8]; 0.128 µM (active) in [9]; 0.0824 µM (active) in [10]; 0.232 µM (active) in assay [20]. Also, the GI50 in assay [11] is 0.457 µM (active); in [12], 0.598 µM (active); in assay [13] it was 1.31 µM (inactive); in assay [14], 0.785 µM (active); in assay [16] it was 0.454 µM (active); in assay [17] it was 0.597 µM (active).

As to `CN(C)CCOC1(Cc2ccc(Cl)cc2Cl)CCC(C(C)(C)C)CC1` (configuration not stated), the GI50 in assay [18] was 1.83 µM (inactive); in assay [1] it was 2.23 µM (inactive); in assay [3] it was 1.57 µM (inactive); in assay [19], 1.84 µM (inactive); in [5], 1.43 µM (inactive); in assay [6], 1.83 µM (inactive). The GI50 in assay [7] was 1.69 µM (inactive); in assay [8] it was 1.54 µM (inactive); in [9], < 0.01 µM (active); in assay [10] it was 2 µM (inactive); in assay [20], 1.68 µM (inactive); in [11], 1.97 µM (inactive). The GI50 was 3.01 µM (inactive) in assay [12], 1.47 µM (inactive) in assay [13], 2.22 µM (inactive) in assay [14] and 1.88 µM (inactive) in [16].

On to `CCOP(=O)(OCC)C(C)(C)N(C)/C(F)=N/C(F)(F)F`, for which the GI50 in assay [1], in assay [2], in [3], in [4], in assay [19] and in assay [5] was > 100 µM (inactive) in each case. Further, the GI50 in assay [6], in assay [7], in assay [8], in assay [9], in assay [20] and in [12] was > 100 µM (inactive) throughout. Further, the GI50 in assay [13], in [15], in [16] and in assay [17] was > 100 µM (inactive) throughout.

As to `CC(C)(C)C(=O)O[C@H]1C=C[C@@H](O)[C@@H]2[C@H]1[C@@H]1C=C[C@H]2C1`, the GI50 in assay [18] is 20.3 µM (inactive); in assay [1], 30 µM (inactive); in assay [2], 47.6 µM (inactive); in [3] it was 14.9 µM (inactive); in [4], 4.15 µM (inactive); in assay [6], 3.06 µM (inactive). Besides, the GI50 in [7] was 31.9 µM (inactive); in assay [8] it was 13.7 µM (inactive); in assay [9], 53.8 µM (inactive); in assay [10], 17.4 µM (inactive); in [12], 27.9 µM (inactive); in assay [13], 18.5 µM (inactive). Further, the GI50 in assay [14] was 70 µM (inactive); in [15] it was 24.8 µM (inactive); in [16] it was 28.8 µM (inactive); in [17], 47.9 µM (inactive).

Regarding `c1ccc2c(c1)c(N1CCCCC1)cc1nc3c(cc(N4CCCCC4)c4ccccc43)nc12`, the GI50 in assay [18], in assay [1], in [2], in [3], in assay [4] and in [19] was > 100 µM (inactive) throughout. For the same compound, the GI50 in assay [5], in assay [6], in [7], in [8], in [9] and in [10] was > 100 µM (inactive) in each case. In addition, the GI50 in assay [20], in assay [11], in [13], in [14], in assay [16] and in assay [17] was > 100 µM (inactive) throughout.
